Reference: patent publication USRE48461E1, “Modulation of androgen receptor expression” (Ionis Pharmaceuticals, Inc., priority 2012, dated 2021)
Oligonucleotides are written 5' to 3', each unit as a sugar letter and its base; * is a phosphorothioate linkage, no mark a phosphodiester; rarer units and linkages stand in square brackets, end groups in braces. Plain capitals give the bases only. k = constrained ethyl (cEt); [5mC] = 5-methylcytosine; d = 2'-deoxy (DNA)

Legend:
AR mRNA [1] = experiment: Antisense inhibition of human AR in HuVEC cells, single concentration (electroporation, qRT-PCR RTS3559); format: cell-based
Method in brief: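 HuVEC cells electroporated with antisense oligonucleotides at a single concentration. AR mRNA quantified by qRT-PCR using human primer-probe set RTS3559 and normalised to total RNA content by RIBOGREEN.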

AR mRNA [2] = experiment: Dose-dependent antisense inhibition of human AR in HuVEC cells (electroporation, qRT-PCR RTS3559, IC50); format: cell-based
Method in brief: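 HuVEC cells dosed with antisense oligonucleotides by electroporation and treated approximately 16 hours. AR mRNA quantified by real-time qPCR with primer probe set RTS3559 and normalised to total RNA by RIBOGREEN; IC50 from dose-response.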

[3] = 500 nM ASO, electroporation, ~24 h, Table 1
[4] = 166.7 nM, HuVEC, ~16 h, Table 3
[5] = 500.0 nM, HuVEC, ~16 h, Table 3
[6] = 1500.0 nM, HuVEC, ~16 h, Table 3
[7] = Table 25, 1,000 nM oligonucleotide, electroporation, approximately 24 hours, relative to untreated control
[8] = Table 36, 46.9 nM, HuVEC, electroporation, approximately 16 hours
[9] = Table 36, 187.5 nM, HuVEC, electroporation, approximately 16 hours
[10] = Table 36, 750.0 nM, HuVEC, electroporation, approximately 16 hours
[11] = Table 36, 3000.0 nM, HuVEC, electroporation, approximately 16 hours
[12] = Table 36, HuVEC, electroporation, approximately 16 hours

In the case of “584152 (kG*kA*kG*dT*dT*dG*dT*dG*dA*dT*dT*dT*d[5mC]*kA*kG*kG; antisense) [compound 584152]”, the “% inhibition” value (AR mRNA [1]; Table 24, 1,000 nM oligonucleotide, electroporation, approximately 24 hours, relative to untreated control) is reported as 88%, the “percent inhibition of AR, 46.9 nM” value (AR mRNA [2]; Table 35, 46.9 nM, HuVEC, electroporation, approximately 16 hours) is reported as 28% and the “percent inhibition of AR, 187.5 nM” value (AR mRNA [2]; Table 35, 187.5 nM, HuVEC, electroporation, approximately 16 hours) is reported as 59%. For the same substance, the “percent inhibition of AR, 750.0 nM” value (AR mRNA [2]; Table 35, 750.0 nM, HuVEC, electroporation, approximately 16 hours) was 87%, the “percent inhibition of AR, 3000.0 nM” value (AR mRNA [2]; Table 35, 3000.0 nM, HuVEC, electroporation, approximately 16 hours) was 95% and the IC50 (AR mRNA [2]; Table 35, HuVEC, electroporation, approximately 16 hours) was 110 nM.
“549381 (kG*k[5mC]*k[5mC]*dG*d[5mC]*d[5mC]*dA*dG*dG*dG*dT*dA*d[5mC]*k[5mC]*kA*k[5mC]; antisense) [compound 549381]” was tested, and the “% inhibition” value (AR mRNA [1]; [3]) was 89%, the “percent inhibition of AR” value (AR mRNA [2]; 55.6 nM, HuVEC, ~16 h, Table 3) was 14% and the “percent inhibition of AR” value (AR mRNA [2]; [4]) was 33%. The “percent inhibition of AR” value (AR mRNA [2]; [5]) was 71%, the “percent inhibition of AR” value (AR mRNA [2]; [6]) was 91% and the IC50 (AR mRNA [2]; HuVEC, ~16 h, Table 3) was 261 nM.
In the case of “583922 (kA*kG*kT*dT*dG*dT*dA*dG*dT*dA*dG*dT*d[5mC]*kG*k[5mC]*kG; antisense) [compound 583922]”, the “% inhibition” value (AR mRNA [1]; Table 21, 500 nM oligonucleotide, electroporation, approximately 24 hours, relative to untreated control) is reported as 37%, the “percent inhibition of AR, 46.9 nM” value (AR mRNA [2]; Table 34, 46.9 nM, HuVEC, electroporation, approximately 16 hours) is reported as 16% and the “percent inhibition of AR, 187.5 nM” value (AR mRNA [2]; Table 34, 187.5 nM, HuVEC, electroporation, approximately 16 hours) is reported as 43%. For the same substance, the “percent inhibition of AR, 750.0 nM” value (AR mRNA [2]; Table 34, 750.0 nM, HuVEC, electroporation, approximately 16 hours) was 76%, the “percent inhibition of AR, 3000.0 nM” value (AR mRNA [2]; Table 34, 3000.0 nM, HuVEC, electroporation, approximately 16 hours) was 92% and the IC50 (AR mRNA [2]; Table 34, HuVEC, electroporation, approximately 16 hours) was 230 nM.
For “584242 (k[5mC]*k[5mC]*kA*dT*dT*dT*dG*dT*dG*d[5mC]*d[5mC]*dA*dA*kA*k[5mC]*k[5mC]; antisense) [compound 584242]”, the “% inhibition” value (AR mRNA [1]; [7]) was 62%, the “percent inhibition of AR, 46.9 nM” value (AR mRNA [2]; [8]) was 12% and the “percent inhibition of AR, 187.5 nM” value (AR mRNA [2]; [9]) was 38%. For the same substance, the “percent inhibition of AR, 750.0 nM” value (AR mRNA [2]; [10]) was 66%, the “percent inhibition of AR, 3000.0 nM” value (AR mRNA [2]; [11]) was 93% and the IC50 (AR mRNA [2]; [12]) was 270 nM.
With “584263 (kT*kA*kG*dG*dG*dT*dT*dT*dG*dG*dT*d[5mC]*dA*kG*kA*kA; antisense) [compound 584263]” the “% inhibition” value (AR mRNA [1]; [7]) was 56%, the “percent inhibition of AR, 46.9 nM” value (AR mRNA [2]; [8]) was 9% and the “percent inhibition of AR, 187.5 nM” value (AR mRNA [2]; [9]) was 24%. For the same substance, the “percent inhibition of AR, 750.0 nM” value (AR mRNA [2]; [10]) was 67%, the “percent inhibition of AR, 3000.0 nM” value (AR mRNA [2]; [11]) was 90% and the IC50 (AR mRNA [2]; [12]) was 340 nM.
For “586224 (kT*kT*kG*kA*kT*dT*dT*dA*dA*dT*dG*dG*dT*kT*kG*k[5mC]; antisense) [compound 586224]”, the “% inhibition” value (AR mRNA [1]; 1,000 nM ASO, ~24 h, Table 13) was 90%, the “percent inhibition of AR” value (AR mRNA [2]; 46.9 nM, HuVEC, ~16 h, Table 15) was 39% and the “percent inhibition of AR” value (AR mRNA [2]; 187.5 nM, HuVEC, ~16 h, Table 15) was 75%. The “percent inhibition of AR” value (AR mRNA [2]; 750.0 nM, HuVEC, ~16 h, Table 15) was 93%, the “percent inhibition of AR” value (AR mRNA [2]; 3000.0 nM, HuVEC, ~16 h, Table 15) was 98% and the IC50 (AR mRNA [2]; HuVEC cells, electroporation) was 50 nM. For the same substance, the “inhibition of AR mRNA at 46.9 nM” value (AR mRNA [2]; HuVEC cells, electroporation, 46.9 nM ASO) was 39%, the “inhibition of AR mRNA at 187.5 nM” value (AR mRNA [2]; HuVEC cells, electroporation, 187.5 nM ASO) was 75% and the “inhibition of AR mRNA at 750.0 nM” value (AR mRNA [2]; HuVEC cells, electroporation, 750.0 nM ASO) was 93%. The “inhibition of AR mRNA at 3000.0 nM” value (AR mRNA [2]; HuVEC cells, electroporation, 3000.0 nM ASO) was 98% and the IC50 (AR mRNA [2]; HuVEC, ~16 h, Table 15) was 50 nM.
In the case of “583797 (antisense kT*k[5mC]*kG*dG*dA*dT*dA*d[5mC]*dT*dG*d[5mC]*dT*dT*k[5mC]*k[5mC]*kT) [compound 583797]”, the “% inhibition” value (AR mRNA [1]; Table 19, 500 nM oligonucleotide, electroporation, approximately 24 hours, relative to untreated control) is reported as 35%, the “percent inhibition of AR, 46.9 nM” value (AR mRNA [2]; Table 32, 46.9 nM, HuVEC, electroporation, approximately 16 hours) is reported as 21% and the “percent inhibition of AR, 187.5 nM” value (AR mRNA [2]; Table 32, 187.5 nM, HuVEC, electroporation, approximately 16 hours) is reported as 50%. For the same substance, the “percent inhibition of AR, 750.0 nM” value (AR mRNA [2]; Table 32, 750.0 nM, HuVEC, electroporation, approximately 16 hours) was 74%, the “percent inhibition of AR, 3000.0 nM” value (AR mRNA [2]; Table 32, 3000.0 nM, HuVEC, electroporation, approximately 16 hours) was 82% and the IC50 (AR mRNA [2]; Table 32, HuVEC, electroporation, approximately 16 hours) was 220 nM.
In the case of “549432 (kG*kA*kG*dG*dA*dT*d[5mC]*dA*dT*d[5mC]*dA*d[5mC]*dA*kG*kA*kT) [compound 549432]”, the “% inhibition” value (AR mRNA [1]; 500 nM ASO, electroporation, ~24 h, Table 2) is reported as 90%, the “percent inhibition of AR” value (AR mRNA [2]; 55.6 nM, HuVEC, ~16 h, Table 4) is reported as 15% and the “percent inhibition of AR” value (AR mRNA [2]; 166.7 nM, HuVEC, ~16 h, Table 4) is reported as 46%. The “percent inhibition of AR” value (AR mRNA [2]; 500.0 nM, HuVEC, ~16 h, Table 4) was 80%, the “percent inhibition of AR” value (AR mRNA [2]; 1500.0 nM, HuVEC, ~16 h, Table 4) was 92% and the IC50 (AR mRNA [2]; HuVEC, ~16 h, Table 4) was 179 nM.
“549383 (k[5mC]*k[5mC]*kA*dA*dA*d[5mC]*dG*d[5mC]*dA*dT*dG*dT*d[5mC]*k[5mC]*k[5mC]*k[5mC]; antisense) [compound 549383]” was tested, and the “% inhibition” value (AR mRNA [1]; [3]) was 88%, the “percent inhibition of AR” value (AR mRNA [2]; 55.6 nM, HuVEC, ~16 h, Table 3) was 10% and the “percent inhibition of AR” value (AR mRNA [2]; [4]) was 34%. For the same substance, the “percent inhibition of AR” value (AR mRNA [2]; [5]) was 75%, the “percent inhibition of AR” value (AR mRNA [2]; [6]) was 88% and the IC50 (AR mRNA [2]; HuVEC, ~16 h, Table 3) was 270 nM.
